# Measurements taken from publication PMC3004914, “Classification of Drugs Based on Properties of Sodium Channel Inhibition: A Comparative Automated Patch-Clamp Study” (PLoS ONE, 2010).
# Read-outs that look alike come from different tables or passages of the source.
# Assays:
# [1] = human plasma, cited from earlier work
# [2] = molecular target: T1, rNav1.2 sodium channels (HEK-293 cells) (Rattus norvegicus, UniProt P04775); assay: 5 Hz train protocol, QPatch automated patch-clamp; type: cell-based; conditions: for τoff: 500 s assigned where irreversible; for Rev (reversibility): Rev = A5/A1 after washout; for potency estimated from few doses: −90 mV;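 for UD (use-dependence of the inhibition): UD = (A3/A4)/(A1/A2) as ratios of peak amplitudes from Figure 1A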
# T1 sequence (P04775 whole entry): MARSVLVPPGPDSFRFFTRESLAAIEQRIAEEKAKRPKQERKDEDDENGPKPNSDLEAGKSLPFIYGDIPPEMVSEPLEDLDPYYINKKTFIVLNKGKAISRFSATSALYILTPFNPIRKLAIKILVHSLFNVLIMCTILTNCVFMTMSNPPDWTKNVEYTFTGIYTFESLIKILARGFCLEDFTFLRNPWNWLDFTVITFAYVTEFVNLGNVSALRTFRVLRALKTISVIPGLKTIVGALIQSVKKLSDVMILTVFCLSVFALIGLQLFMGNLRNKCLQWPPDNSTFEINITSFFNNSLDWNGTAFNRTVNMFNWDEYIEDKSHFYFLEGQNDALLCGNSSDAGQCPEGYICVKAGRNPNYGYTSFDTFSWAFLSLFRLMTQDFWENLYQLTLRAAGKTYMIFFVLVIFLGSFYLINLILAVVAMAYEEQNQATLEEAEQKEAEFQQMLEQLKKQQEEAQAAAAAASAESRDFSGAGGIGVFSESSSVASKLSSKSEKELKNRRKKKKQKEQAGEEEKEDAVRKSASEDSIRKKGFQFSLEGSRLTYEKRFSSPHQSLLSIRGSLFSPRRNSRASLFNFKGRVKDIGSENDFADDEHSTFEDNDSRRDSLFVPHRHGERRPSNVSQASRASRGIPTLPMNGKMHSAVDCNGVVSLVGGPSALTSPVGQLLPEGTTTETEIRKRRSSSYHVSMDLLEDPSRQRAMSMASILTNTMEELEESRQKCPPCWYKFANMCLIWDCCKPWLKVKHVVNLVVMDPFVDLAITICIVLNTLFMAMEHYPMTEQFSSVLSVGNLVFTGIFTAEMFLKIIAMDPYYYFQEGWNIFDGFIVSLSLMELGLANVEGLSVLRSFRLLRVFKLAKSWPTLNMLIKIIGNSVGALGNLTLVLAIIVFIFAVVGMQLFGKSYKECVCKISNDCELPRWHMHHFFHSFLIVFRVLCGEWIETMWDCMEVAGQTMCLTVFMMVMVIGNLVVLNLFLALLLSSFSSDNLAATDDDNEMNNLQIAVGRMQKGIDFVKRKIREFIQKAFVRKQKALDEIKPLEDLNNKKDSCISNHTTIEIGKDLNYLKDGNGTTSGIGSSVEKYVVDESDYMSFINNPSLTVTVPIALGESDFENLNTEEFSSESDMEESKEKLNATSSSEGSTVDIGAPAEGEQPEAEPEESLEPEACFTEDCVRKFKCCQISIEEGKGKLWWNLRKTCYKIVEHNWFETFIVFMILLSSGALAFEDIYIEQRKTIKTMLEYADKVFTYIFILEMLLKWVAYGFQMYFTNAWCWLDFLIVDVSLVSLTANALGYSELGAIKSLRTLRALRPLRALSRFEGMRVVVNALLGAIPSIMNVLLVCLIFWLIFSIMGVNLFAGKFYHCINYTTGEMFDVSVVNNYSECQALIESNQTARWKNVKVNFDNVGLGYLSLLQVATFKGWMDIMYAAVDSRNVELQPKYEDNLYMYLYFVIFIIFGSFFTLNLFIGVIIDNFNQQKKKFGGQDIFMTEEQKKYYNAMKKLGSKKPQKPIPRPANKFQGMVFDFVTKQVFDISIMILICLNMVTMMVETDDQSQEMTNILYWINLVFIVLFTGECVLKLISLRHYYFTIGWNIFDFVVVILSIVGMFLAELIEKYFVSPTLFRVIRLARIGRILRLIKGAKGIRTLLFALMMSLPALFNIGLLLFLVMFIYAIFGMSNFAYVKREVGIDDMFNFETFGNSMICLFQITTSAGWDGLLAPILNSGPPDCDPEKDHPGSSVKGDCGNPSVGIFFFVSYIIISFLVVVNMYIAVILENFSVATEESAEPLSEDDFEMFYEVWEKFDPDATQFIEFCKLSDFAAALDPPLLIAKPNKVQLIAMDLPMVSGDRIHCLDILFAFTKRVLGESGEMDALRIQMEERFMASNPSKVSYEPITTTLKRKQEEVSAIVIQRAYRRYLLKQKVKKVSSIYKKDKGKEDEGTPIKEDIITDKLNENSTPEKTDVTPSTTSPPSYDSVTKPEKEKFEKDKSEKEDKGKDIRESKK
# Text: The dynamics of the onset and offset of inhibition was monitored using 5 Hz trains of five depolarizing pulses from a holding potential of −90 mV to −10 mV. The trains were repeated every 20 s. Drugs were applied after 10 control trains and 10 trains were delivered in the presence of the drug. The drug was then washed out, and the 10 trains were repeated.
# We measured inhibition (Inh; from which we calculated IC50 values as described in Materials and Methods), reversibility of inhibition (Rev) and use-dependence (UD), as well as time constant of onset (τon) and offset (τoff). The calculation of IC50, quantification of Rev and UD, and the determination of time constants are illustrated in Figure 1A. Because τon should be concentration-dependent if we assume a single binding reaction, we excluded it from the analyses. […] Comments on the interpretation of these properties (Rev, […] and UD) are in Results S1.
# (§1) A)–D) Peak amplitudes of evoked currents (5 Hz trains of 5 depolarizations from −90 to −10 mV) are plotted against time. Black dots: Control. Grey dots: Drug perfusion. […] Calculation of properties of inhibition is illustrated. […] E) Calculation of Kr and Ki values from steady-state availability curves.
# (§2) HEK-293 cells stably expressing rNav1.2 sodium channels were obtained from NeuroSearch (Ballerup, Denmark).
# (§3) Cells were automatically prepared for application to the chips (centrifuged and washed twice, then resuspended in extracellular solution) as described previously. Composition of the extracellular solution was: (in mM): 140 NaCl, 3 KCl, 1 CaCl2, 1 MgCl2, 0.1 CdCl2, 20 TEA-Cl, 5 HEPES, adjusted to pH 7.3, Osmolality: ∼320 mOsm.
# (§4) All electrophysiological experiments were conducted on Qpatch-16 or QPatch HT instruments using QPlate™ chips. For a detailed description of the instrument and the patch-clamp chips see [37], [38]. Data were sampled at a frequency of 25 kHz and filtered at 5 kHz. […] The amplifier was controlled and the data were collected by the Sophion QPatch client software. For initial data analysis the QPatch software was used. Built-in amplifiers provide an improved method for series resistance compensation. Leak subtraction (based on a standard P/n protocol) was used to subtract the capacitive component of currents.
# From this protocol we extracted five parameters, as illustrated in Figure 1A. We calculated inhibition of a single “cc” concentration: Inh = (amplitudectr – amplitudedrug)/amplitudectr.
# [3] = molecular target: T1, rNav1.2 sodium channels (HEK-293 cells); assay: steady-state inactivation protocol (availability curves), QPatch automated patch-clamp; type: cell-based
# Text: as §1
# Standard steady-state inactivation protocols were used to measure the shift of steady-state availability curve caused by the drugs. Currents were evoked by a 10 ms test pulse to −10 mV, preceded by 400 ms pre-pulses from −150 to −30 mV. […] Because the inhibition at hyperpolarized potentials (Inh−150), and the shift of the availability curves (ΔV1/2) are both concentration-dependent properties, we calculated affinities to hyperpolarized and depolarized states (“resting state affinity”: Kr, and “inactivated state affinity”: Ki), which, on the other hand, are concentration-independent characteristics of individual drugs. Calculation of Kr and Ki values are described in Materials and Methods, and illustrated in Figure 1E. State-dependence (SD) was quantified as the ratio Kr/Ki.
# as §2, §3, §4
# Inactivated affinity (Ki) values were calculated assuming a simple four-state model of drug binding and channel gating, using two separate methods: (1) from the shift of the availability curve (ΔV1/2), the slope of the Boltzmann fit of the availability curve (k) and Kr, using the formula described by Bean, Cohen and Tsien (Ki−ΔV1/2; see Figure 1E), or (2) from the apparent affinity (Kapp) at a certain pre-pulse potential, which was calculated from the inhibition (e.g. Inh−60) as described above, and the availability (h) at the same pre-pulse potential, using the formula from Kuo and Bean (Figure 1E). […] (Arithmetic means and SEM values are given in Results S7.)
# [4] = HEK293, 100 μM, −90 mV holding potential, 5 Hz train, read-out: Inh (inhibited fraction)
# [5] = HEK293, calculated from Inh at single concentration 100 μM, 5 Hz train, read-out: IC50
# [6] = HEK293, 300 μM, −90 mV holding potential, 5 Hz train, read-out: Inh (inhibited fraction)
# [7] = HEK293, calculated from Inh at single concentration 300 μM, 5 Hz train, read-out: IC50
structure (smiles),measurement,setting,value
"CNCCC(Oc1ccccc1OC)c1ccccc1 (centres unmarked) [NIS, Nisoxetine]",plasma conc.,[1]; as printed in each cell,0.05 [46] µg/ml
same,plasma conc.,[1]; as printed in the µg/ml cell,0.159 µM
same,τon,[2]; 100 μM,20.71 s
same,UD (use-dependence of the inhibition),"[2]; 100 μM, 5 Hz train",1.33
same,τoff,[2]; 100 μM,23.41 s
same,Rev (reversibility),[2]; 100 μM,0.66
same,inhibition at 100 µM,[2]; [4],57%
same,potency estimated from few doses,[2]; [5],75.7 µM
same,ΔV1/2 (shift of availability curve),[3]; 100 μM,−6.68 mV
same,inhibition at 100 µM,"[3]; HEK293, read-out: Inh (inhibited fraction) at holding potential −150 mV",34%
same,Ki,"[3]; Ki-Kapp arith, arithmetic mean, 100 µM",7.63 µM
same,Ki,"[3]; Ki-ΔV1/2 arith, arithmetic mean, 100 µM",19.5 µM
same,Ki,"[3]; Ki−Kapp (inactivated state affinity), geometric mean, from apparent affinity, 100 µM",7.1 µM
same,Ki,"[3]; Ki−ΔV1/2 (inactivated state affinity), geometric mean, from shift of availability curve, 100 µM",19.1 µM
same,Kd,"[3]; Kr (resting state affinity), geometric mean, from Inh at −150 mV, 100 µM",194 µM
same,Kd,"[3]; Kr arith, arithmetic mean, 100 µM",196 µM
"CN[C@H]1CC[C@@H](c2ccc(Cl)c(Cl)c2)c2ccccc21 [SRT, Sertraline]",plasma conc.,[1]; as printed in each cell,0.14 [44] µg/ml
same,plasma conc.,[1]; as printed in the µg/ml cell,0.409 µM
"CCN(CC)CCNC(=O)c1cc(S(C)(=O)=O)ccc1OC [TIA, Tiapride]",plasma conc.,[1]; as printed in each cell,0.56 [51] µg/ml
same,plasma conc.,[1]; as printed in the µg/ml cell,1.535 µM
same,inhibition at 300 µM,[2]; [6],7%
same,potency estimated from few doses,[2]; [7],3990 µM
"CN1CCN(C2=Nc3cc(Cl)ccc3Nc3ccccc32)CC1 [CLZ, Clozapine]",plasma conc.,[1]; as printed in each cell,0.55 [44] µg/ml
same,plasma conc.,[1]; as printed in the µg/ml cell,1.671 µM
"CCc1nn(CCCN2CCN(c3cccc(Cl)c3)CC2)c(=O)n1CCOc1ccccc1 [NFZ, Nefazodone]",plasma conc.,[1]; as printed in each cell,1.52 [48] µg/ml
same,plasma conc.,[1]; as printed in the µg/ml cell,3.007 µM
same,τon,[2]; 30 μM,8.75 s
same,UD (use-dependence of the inhibition),"[2]; 30 μM, 5 Hz train",1.22
same,τoff,[2]; 30 μM,10.93 s
same,Rev (reversibility),[2]; 30 μM,0.51
same,inhibition at 30 µM,"[2]; HEK293, 30 μM, −90 mV holding potential, 5 Hz train, read-out: Inh (inhibited fraction)",39%
same,potency estimated from few doses,"[2]; HEK293, calculated from Inh at single concentration 30 μM, 5 Hz train, read-out: IC50",46.4 µM
same,ΔV1/2 (shift of availability curve),[3]; 30 μM,−17.4 mV
same,inhibition at 30 µM,"[3]; HEK293, 30 µM, read-out: Inh (inhibited fraction) at holding potential −150 mV",9%
same,Ki,"[3]; arithmetic mean, 30 µM, read-out: Ki-Kapp arith",1.1 µM
same,Ki,"[3]; arithmetic mean, 30 µM, read-out: Ki-ΔV1/2 arith",1.05 µM
same,Kd,"[3]; geometric mean, from Inh at −150 mV, 30 µM, read-out: Kr (resting state affinity)",567 µM
same,Ki,"[3]; geometric mean, from apparent affinity, 30 µM, read-out: Ki−Kapp (inactivated state affinity)",0.92 µM
same,Ki,"[3]; geometric mean, from shift of availability curve, 30 µM, read-out: Ki−ΔV1/2 (inactivated state affinity)",0.87 µM
"CC1(C)O[C@@H]2[C@@H](CO[C@@]3(COS(N)(=O)=O)OC(C)(C)O[C@@H]23)O1 [TOP, Topiramate]",plasma conc.,[1]; as printed in each cell,5.5 [44] µg/ml
same,plasma conc.,[1]; as printed in the µg/ml cell,16.21 µM
same,inhibition at 300 µM,[2]; [6],7%
same,potency estimated from few doses,[2]; [7],3990 µM
"CN1CCN2c3ccccc3Cc3ccccc3C2C1 (centres unmarked) [MIA, Mianserin]",plasma conc.,[1]; as printed in each cell,0.01 [47] µg/ml
same,plasma conc.,[1]; as printed in the µg/ml cell,0.037 µM
"O=C(CCNNC(=O)c1ccncc1)NCc1ccccc1 [NIA, Nialamide]",inhibition at 100 µM,[2]; [4],3%
same,potency estimated from few doses,[2]; [5],3230 µM
"NCC1(CC(=O)O)CCCCC1 [GAB, Gabapentin]",plasma conc.,[1]; as printed in each cell,4 [44] µg/ml
same,plasma conc.,[1]; as printed in the µg/ml cell,23.359 µM
same,potency estimated from few doses,"[2]; HEK293, read-out: IC50, calculated from Inh at single concentration 300 μM, 5 Hz train",14700 µM
same,inhibition at 300 µM,"[2]; HEK293, read-out: Inh (inhibited fraction)",3%
"O=C(NCCN1CCOCC1)c1ccc(Cl)cc1 [MCL, Moclobemide]",plasma conc.,[1]; as printed in each cell,0.29 [49] µg/ml
same,inhibition at 100 µM,[2]; [4],9%
same,potency estimated from few doses,[2]; [5],1010 µM
"CNCCCC12CCC(c3ccccc31)c1ccccc12 [MPR, Maprotiline]",plasma conc.,[1]; as printed in each cell,0.25 [45] µg/ml
same,plasma conc.,[1]; as printed in the µg/ml cell,0.797 µM
